Reference: article PMC11920571, “Esc peptides and derivatives potentiate the activity of CFTR with gating defects and display antipseudomonal activity in cystic fibrosis-like lung disease” (Cellular and Molecular Life Sciences: CMLS, 2025)
Non-standard residues stand in square brackets, D forms with d. Residues, ends and D or L forms follow the SMILES beside them. No end group written: not given here. Aib = CC(C)(N)C(=O)O

What was measured:
P. aeruginosa PAO1 [1] = assay: Co-culture (biotic biofilm) on polarized airway epithelium at ALI; format: cell-based; conditions: 20 μM peptide in PBS for 2 h; PAO1 grown 6 h on polarized homozygous F508del airway epithelium at ALI; vs PBS
Description: This assay was performed using co-cultures of polarized and well-differentiated human bronchial epithelial cells derived from a homozygous F508del patient and P. aeruginosa PAO1 grown to a log phase. Polarized human epithelia in transwell permeable supports and maintained in ALI culture were inoculated with P. aeruginosa PAO1 in 50 µl of cell culture medium (initial inoculum of 200 bacterial cells per ALI culture insert, according to [75]) at the apical side of the supports for 1 h to allow attachment of the bacteria to the epithelium in ALI culture. Unattached bacteria were removed and the supports incubated (37 °C; 5% CO₂) for 5 h prior to the addition of peptide. Each peptide, at 20 μM, diluted in 100 µl PBS, was added for 2 h. After a total of 8 h, the airways surface liquid was collected and aliquots poured on plates for counting. Afterwards, the epithelium was disrupted by adding 150µl Tripsin-EDTA and incubated for 15 min. Subsequently, 200 µl Triton X-100 (0.1%) was added and the supports incubated again for 15 min. Serial dilution and counting of bacterial cells was performed on tryptic soy agar plates to determine the number of CFU.

F508del-CFBE41o- cells = conditions: 20 μM peptide, 24 h, CCK-8, absorbance 450 nm
Description: The Cell Counting Kit 8 (CCK-8) assay was performed as follows to assess cell viability. About 1×10^4 F508del-CFBE41o- cells were seeded in each well of a 96-well plate and incubated at 37 °C and 5% CO2. After 24 h, the medium was replaced by MEM supplemented with 2 mM L-glutamine and containing each peptide at different concentrations. The plate was incubated for 24 h and subsequently 10 μl of CCK-8 reagent were added to each well. After 2 h incubation, the absorbance of each well was measured at 450 nm using a microplate reader (Infinite M200; Tecan, Salzburg, Austria).

P. aeruginosa PAO1 [2] = assay: Murine lung infection model, wild-type littermates; format: in vivo, mice; conditions: 0.1 mg/kg (20 μM) i.t. 1 h after i.t. ~3 x 10^6 CFU PAO1, lungs at 24 h, three independent experiments
Description: (§1) The animal experiments were performed according to a protocol (protocol 23083347) approved by the Institutional Animal Care and Use Committee (IACUC) of the University of Pittsburgh based on the NIH guide for the care and use of laboratory animals. Transgenic mice with expression of the protein-coding region of the mouse Scnn1b (β-ENaC) and driven by rat airway-specific Scgb1a1 (also called the Clara cell secretory protein) gene were previously described and obtained from Dr. Wanda O'Neal from the University of North Carolina at Chapel Hill. β-ENaC mice in C57BL/6 genetic background were maintained in heterozygous conditions and continuously bred with C57BL/6 wild-type mice. Genotyping was performed for all pups to identify their respective genotypes. Mice expressing β-ENaC and their wild-type littermates at the same ages were used for experiments. Seven-week-old female and male mice were anesthetized by isoflurane inhalation and instilled intratracheally with ~3 x 10^6 CFU of P. aeruginosa PAO1 in 50 µl PBS. […] Control mice were given 50 µl of PBS without peptide. After 24 h, lungs were harvested, four right lobes of each mouse lung were homogenised, serial diluted to determine the total lung bacterial burden, according to the published method.

[3] = tested on: Gram-negative bacterial strains and Staphylococcus aureus; assay: MIC determination, summary over the strain panel; format: cell-based; conditions: summary of Table 3
Description: Peptides were tested against the Gram-negative Escherichia coli ATCC 25922, Ainetobacter baumannii ATCC 19606, P. aeruginosa ATCC 27853, P. aeruginosa PAO1; and the Gram-positive S. aureus ATCC 25923, MDR#1, MDR#2, MDR#3 and MDR#4. The MIC values were determined as previously reported. Briefly, bacteria were grown at 37 °C in Luria-Bertani broth (LB) until an optical density (OD) of 0.8 was reached (λ=590 nm). Aliquots of bacteria (50 µL) were added to each well of a 96-multiwell plate containing serial dilutions of the tested peptides in Mueller Hinton broth (MH). The final cell concentration was 1x10^6 CFU/ml.

P. aeruginosa PAO1 [4] = assay: Murine lung infection model, β-ENaC transgenic mice; format: in vivo; conditions: for lowering of lung bacterial burden (CFU): 0.1 mg/kg (20 μM) i.t. 1 h after i.t. ~3 x 10^6 CFU PAO1, lungs at 24 h, three independent experiments
Description: as §1

[5] = tested on: intracellular calcium in null FRT cells; assay: Microplate reader Fluo-4 Ca2+ assay; format: cell-based, rat; conditions: peptides 10 µM each, UTP 100 µM (Fig. 7) or 10 µM (method), acute addition
Description: Experiments for the evaluation of intracellular calcium mobilization were performed using an automated micro-plate reader (FluoStar) equipped with syringe pumps and optical excitation/emission filters (500/535 nm). FRT cells were cultured until confluence in 96-well microplates. Before starting the assay, cells were washed 3 times with complete PBS (200 μl/wash) and then loaded for 1 h at 37 °C with 5 μM Fluo-4/AM (Thermo Fisher Scientific) in PBS containing 10 mM glucose, 0.5 mM sulfinpyrazone and 1% fetal bovine serum. After loading, cells were washed twice with PBS (120 μl/wash) and incubated for 15 min at 37 °C with 100 μl of PBS plus 10 mM glucose and 0.5 mM sulfinpyrazone. The assay was run on one well at a time by programming the plate reader to acquire the fluorescence emitted from each well every 0.2 s for 120 s. At 2.8 s from the start of reading, the plate reader injected 100 μl of PBS (with glucose and sulfinpyrazone) containing vehicle alone (DMSO), peptides (10 µM each) or UTP (10 µM).

G551D-CFTR = target: T1, G551D-CFTR (Homo sapiens, UniProt P13569, G551D); assay: TEER/transepithelial conductance in G551D-FRT cells; format: cell-based; conditions: 20 µM FSK + 10 µM peptide, 10 min, n ≥ 6
T1 construct: expressed in transfected cells
Description: (§2) To evaluate the effect of the peptides on the ion current controlled by CFTR, the transepithelial conductance was measured in epithelia formed by FRT expressing CFTR with different mutation. Cells were seeded on permeable supports (24 Millicell plates PSHT01QR1) and then incubated in their standard culture medium. Cells expressing F508del mutation were pretreated with 1 μM VX-809 to deliver the defective protein to the plasma membrane. After 24 h, the medium was replaced with saline solution containing (in mM): 130 NaCl, 2.7 KCl, 1.5 KH2PO4, 1 CaCl2, 0.5 MgCl2, 10 glucose, 10 Na-Hepes (pH, 7.4), which was added to both apical and basolateral compartments of the permeable supports. Initially, TEER was measured in basal conditions without CFTR activation, using the epithelial voltmeter (MILLICELL ERS-2, Millipore Burlington, MA). Afterwards, 20 μM FSK + 10 μM GEN (as positive control) or FSK+ peptides at the desired concentration were added on the apical side of the epithelium and TEER measurement was performed at 37 °C after 10 min from the addition of the compounds. Finally, TEER was measured after the addition of 30 μM PPQ102 to the apical side of the epithelium, to inhibit CFTR. From the values of TEER obtained before and after CFTR inhibition, the CFTR-dependent TEER was calculated, for each condition. All TEER values were converted to transepithelial conductance (TEEC) using the formula TEEC = 1/TEER [68].

G1349D-CFTR = target: T2, G1349D-CFTR (Homo sapiens, UniProt P13569, G1349D); assay: TEER/transepithelial conductance in G1349D-FRT cells; format: cell-based; conditions: 20 µM FSK + 10 µM peptide, 10 min, n ≥ 6
T2 construct: expressed in transfected cells
Description: as §2

P. aeruginosa = conditions: C57BL/6 mice, i.t. instillation at 0.1 mg/Kg (corresponding to 20 μM); cited from earlier work
Source text: In the last years, we identified two antimicrobial peptides (AMPs), Esculentin-1a(1–21)NH2 [Esc(1–21)] and its diastereomer Esc(1–21)−1c (Esc peptides, Table 1), with a strong activity against the free-living and sessile forms of P. aeruginosa and with the ability to accelerate recovery of damaged bronchial epithelium.

T1 sequence (P13569 whole entry G551D): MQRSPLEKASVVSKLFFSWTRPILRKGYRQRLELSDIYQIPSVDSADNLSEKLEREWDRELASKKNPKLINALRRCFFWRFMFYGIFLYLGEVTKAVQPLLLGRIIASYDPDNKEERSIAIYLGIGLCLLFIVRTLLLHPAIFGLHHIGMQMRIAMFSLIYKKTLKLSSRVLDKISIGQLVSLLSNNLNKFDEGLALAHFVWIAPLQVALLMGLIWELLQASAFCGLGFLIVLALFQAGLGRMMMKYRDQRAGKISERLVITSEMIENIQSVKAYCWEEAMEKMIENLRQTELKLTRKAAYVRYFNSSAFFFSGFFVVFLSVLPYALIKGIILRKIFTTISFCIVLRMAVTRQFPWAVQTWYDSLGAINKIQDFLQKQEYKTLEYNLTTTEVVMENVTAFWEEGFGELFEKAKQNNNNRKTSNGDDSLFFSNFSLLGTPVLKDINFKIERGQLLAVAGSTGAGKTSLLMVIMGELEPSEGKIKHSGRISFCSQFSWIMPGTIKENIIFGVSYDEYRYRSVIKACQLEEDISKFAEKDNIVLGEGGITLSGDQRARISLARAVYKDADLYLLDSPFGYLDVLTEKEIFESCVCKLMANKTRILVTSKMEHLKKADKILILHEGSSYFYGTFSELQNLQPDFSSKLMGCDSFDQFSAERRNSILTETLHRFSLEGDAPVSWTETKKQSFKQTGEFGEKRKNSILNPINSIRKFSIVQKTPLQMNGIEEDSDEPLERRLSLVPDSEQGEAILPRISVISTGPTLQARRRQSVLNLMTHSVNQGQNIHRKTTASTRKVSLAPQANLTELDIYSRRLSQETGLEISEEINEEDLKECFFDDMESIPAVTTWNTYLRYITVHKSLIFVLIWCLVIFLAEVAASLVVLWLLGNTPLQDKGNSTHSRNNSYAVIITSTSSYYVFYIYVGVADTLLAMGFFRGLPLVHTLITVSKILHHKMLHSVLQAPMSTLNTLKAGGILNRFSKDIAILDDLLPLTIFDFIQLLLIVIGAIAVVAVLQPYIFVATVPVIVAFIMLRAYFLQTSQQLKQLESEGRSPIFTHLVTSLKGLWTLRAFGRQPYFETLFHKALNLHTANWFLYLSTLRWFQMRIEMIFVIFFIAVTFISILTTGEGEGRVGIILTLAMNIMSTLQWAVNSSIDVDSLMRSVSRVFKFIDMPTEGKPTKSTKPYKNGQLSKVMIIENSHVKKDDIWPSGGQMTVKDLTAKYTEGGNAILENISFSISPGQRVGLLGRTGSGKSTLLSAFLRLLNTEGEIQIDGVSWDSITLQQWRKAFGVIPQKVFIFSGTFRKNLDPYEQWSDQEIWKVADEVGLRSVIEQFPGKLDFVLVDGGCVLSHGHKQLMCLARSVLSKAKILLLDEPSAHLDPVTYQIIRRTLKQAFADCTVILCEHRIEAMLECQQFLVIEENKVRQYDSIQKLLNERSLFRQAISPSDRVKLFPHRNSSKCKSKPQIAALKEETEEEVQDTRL
T2 sequence (P13569 whole entry G1349D): as the sequence (P13569 whole entry G551D) above, with D551G, G1349D counted along it

CC[C@H](C)[C@H](NC(=O)CN)C(=O)N[C@@H](Cc1ccccc1)C(=O)N[C@@H](CO)C(=O)N[C@@H](CCCCN)C(=O)N[C@@H](CC(C)C)C(=O)N[C@@H](C)C(=O)NC(C)(C)C(=O)N[C@@H](CCCCN)C(=O)N[C@@H](CCCCN)C(=O)N[C@H](C(=O)N[C@@H](CCCCN)C(=O)N[C@@H](CC(N)=O)C(=O)N[C@@H](CC(C)C)C(=O)N[C@@H](CC(C)C)C(=O)N[C@H](C(=O)N[C@@H](CO)C(=O)NCC(=O)N[C@@H](CC(C)C)C(=O)N[C@@H](CCCCN)C(=O)NCC(N)=O)[C@@H](C)CC)[C@@H](C)CC [Esc_Aib-8, [Aib^8]-Esc(1–21)] (H-GIFSKLA[Aib]KKIKNLLISGLKG-NH2; N-terminus assumed)
reduction of bacterial load (ASL plus intracellular CFU) (P. aeruginosa PAO1 [1]): ~2 log10-unit
viable cells (F508del-CFBE41o- cells): more than 90%
reduction in the number of lung bacterial cells (CFU) (P. aeruginosa PAO1 [2]): ~ 2 log10
ability to inhibit bacterial growth, in words [3]: the most active one against Gram-negative bacteria
lowering of lung bacterial burden (CFU) (P. aeruginosa PAO1 [4]): ~ 2 log10
efficacy in lowering lung bacterial load, comparison in words (P. aeruginosa PAO1 [4]; 0.1 mg/kg i.t., lungs at 24 h): trend slightly stronger than that of Esc(1–21)−1c

O=c1ccn([C@@H]2O[C@H](COP(=O)(O)OP(=O)(O)OP(=O)(O)O)[C@@H](O)[C@H]2O)c(=O)[nH]1 [UTP]
change in Fluo-4 fluorescence (intracellular calcium) [5]: marked and rapid increase in fluorescence

GIFSKLAGKKIKNLLIEGLKG-NH2 [Esc-1C_DGlu-17, analog containing D-Glutamic acid at position 17]
variation in CFTR-mediated conductance (G551D-CFTR): no variation in CFTR-mediated conductance
variation in CFTR-mediated conductance (G1349D-CFTR): no variation in CFTR-mediated conductance
MIC increase versus reference Esc(1–21)−1c [3]: ~ 4 fold

GIFSKLAGKKIKNLLIEGLKG-NH2 [Esc_Glu-17, analog containing L-Glutamic acid at position 17]
variation in CFTR-mediated conductance (G551D-CFTR): no variation in CFTR-mediated conductance
variation in CFTR-mediated conductance (G1349D-CFTR): no variation in CFTR-mediated conductance
ability to inhibit bacterial growth, in words [3]: comparable to the reference Esc(1–21)−1c

GIFSKLAGKKIKNLLISGLKG-NH2 [Esc(1–21)−1c, diastereomer of Esc(1–21)]
effect on lung bacterial burden (P. aeruginosa): reduce lung bacterial burden
reduction in the number of lung bacterial cells (CFU) (P. aeruginosa PAO1 [2]): ~ 2 log10
lowering of lung bacterial burden (CFU) (P. aeruginosa PAO1 [4]): ~ 2 log10

Gly-Ile-Phe-Ser-Lys-Leu-Ala-Gly-Lys-Lys-Ile-Lys-Asn-Leu-Leu-Ile-phosphoSer-Gly-Leu-Lys-Gly-NH2 [D-phosphoEsc, isoform carrying a D-leucine at position 14 and D-phosphoserine at position 17]
CFTR-mediated conductance (∆G) relative to FSK alone (G551D-CFTR): at least 3 fold
CFTR-mediated conductance (∆G) relative to FSK alone (G1349D-CFTR): at least 3 fold

colistin [reference compound]
reduction in the number of lung bacterial cells (CFU) (P. aeruginosa PAO1 [2]): ~ 2 log10
